Experimental findings from US20220125752A1, “LEVODOPA DERIVATIVE AND USE THEREOF” (UNIVERSITY OF TSUKUBA, priority 2019, published 2022) are described below.

For data set [1], the system named is heart, lung, liver, spleen, and kidney. Set-up: species or system mice. As to conditions: mouse, in vivo. The method, then:
After the animals were euthanized, major organs were cut out from mouse models of Parkinson's disease (PD) and L-DOPA-induced dyskinesia (LID) and fixed in a 4% paraformaldehyde solution at 4° C. for 72 hours. These tissues were then processed using an automated tissue processor (TP1020, Leica, Germany). The samples embedded in paraffin were subsequently sliced to a thickness of […] with an automatic microtome and stained with hematoxylin and eosin (H&E) as well as Masson trichrome (MT). Histological evaluation was performed by observation under an optical microscope (DP73, Olympus, Japan) and assessment of the potential toxicity of the PEG-b-P(L-DOPA(OAc)2)-Npa (or Nano^DOPA) during the treatment.

Data set [2] has as its system L-DOPA-induced dyskinesia in MPTP mice. The data set can be described thus: Slider test. In kind it is in vivo, C57BL/6J mice. Particulars: Day 17; 25 mg/kg (in terms of L-DOPA) with Benserazide 12 mg/kg for 17 days. An excerpt:
Male C57BL/6J mice, 15 weeks old, were used (see Chonpathompikunlert, P. (2018). BMC Complementary and Alternative Medicine, 18(103), 1 -12). […] The administration before treatment was to induce PD, and the administration after treatment was to visualize by a behavioral test. […] (6) In addition, in a slider test, motor ability can be assessed by measuring the time until each mouse becomes unable to walk on a slope of 26.5 degrees or slides down, and the time is expected to be shortened with Parkinson's disease.

Data set [3] is described as follows: Body weight change and health during treatment. As to conditions: 15 mg/kg (in terms of L-DOPA) intraperitoneal for 11 days. In kind it is in vivo, C57BL/6J mice. Here is the method:
Male C57BL/6J mice, 15 weeks old, were used (see Chonpathompikunlert, P. (2018). BMC Complementary and Alternative Medicine, 18(103), 1 -12). A method of intraperitoneally administering 1-methyl-4-phenyl -1,2,3,6-tetrahydropyridine (MPTP) was used, but MPTP was administered before and after treatment with intraperitoneal administration of nanoparticles because of high recovery ability of mice themselves. The administration before treatment was to induce PD, and the administration after treatment was to visualize by a behavioral test.
The mice were randomly divided into the following four groups (n=4). • 1) Saline, for 12 days • 2) MPTP 20 mg/kg, 4 times daily, every 2 hours+saline, for 11 days+MPTP 30 mg/kg, for 3 days • 3) MPTP 20 mg/kg, 4 times daily, every 2 hours+L-DOPA 15 mg/kg, for 11 days+MPTP 30 mg/kg, for 3 days • 4) MPTP 20 mg/kg, 4 times daily, every 2 hours+NPs 15 mg/kg (in terms of L-DOPA), for 11 days+MPTP 30 mg/kg, for 3 days

In data set [4] the test system is Parkinson's disease mouse models (MPTP). Put plainly: Narrow beam walk test, oral administration. As to conditions: oral L-DOPA 15 mg/kg; versus MPTP-administered group. Type of data set: in vivo, C57BL/6J mice. The method, then:
(§1) Male C57BL/6J mice, 15 weeks old, were used as models as in Test 2. A three-day training period was provided for the models prior to administration to familiarize them with the experimental apparatus. MPTP was administered intraperitoneally at 30 mg/kg every day for the first 5 days (sub-acute). After the administration of MPTP, oral administration of L-DOPA or Nano^DOPA (administered once daily with a tube) was started, and MPTP was administered intraperitoneally to Groups II and III on Day 9, 4 times daily, every 2 hours (acute). MPTP was also administered intraperitoneally in a similar manner to the remaining Group IV on Day 10. The catalepsy test was performed on the same day as the acute administration of MPTP. In addition, the narrow beam walk test (see Test 2 (4)) was performed 2 days after the catalepsy test. All the mice were euthanized the next day of the behavioral test. Each group described above was as follows, and the mice were randomized into the following four groups (n=8). II. MPTP 30 mg/kg, for 5 days (sub-acute)+MPTP 20 mg/kg, 4 times daily, every 2 hours (acute) MPTP 30 mg/kg, for 5 days (sub-acute)+MPTP 20 mg/kg, 4 times daily, every 2 hours (acute)+L-DOPA 15 mg/kg (oral) IV. MPTP 30 mg/kg, for 5 days (sub-acute)+MPTP 20 mg/kg, 4 times daily, every 2 hours (acute)+Nano^DOPA 1.5 mg/kg (given ad libitum) The results are shown in FIG. 21.

The test system is the same in data set [5]. Put plainly: Catalepsy test, oral administration. Type of data set: in vivo, C57BL/6J mice. As to conditions: L-DOPA 15 mg/kg, Nano^DOPA 1.5 mg/kg (given ad libitum), same day as acute MPTP. The method, then: as §1
For data set [6], the system named is MPTP mouse model of Parkinson's disease. The data set can be described thus: Narrow beam walk test, intraperitoneal treatment. In kind it is in vivo, C57BL/6J mice. As to conditions: Day 7; 15 mg/kg (in terms of L-DOPA) intraperitoneal; versus MPTP-administered group. An excerpt: Male C57BL/6J mice, 15 weeks old, were used (see Chonpathompikunlert, P. (2018). BMC Complementary and Alternative Medicine, 18(103), 1 -12). […] The administration before treatment was to induce PD, and the administration after treatment was to visualize by a behavioral test. […] In this test, motor ability can be accessed by measuring the time until a mouse passes through a narrow bridge with a width of 1 cm, and the time increases with Parkinson's disease.

Data set [7] has as its system L-DOPA-induced dyskinesia in MPTP mice. Put plainly: Abnormal involuntary movement scale test (AIMS test). In kind it is in vivo, C57BL/6J mice. Particulars: Day 17; 25 mg/kg (in terms of L-DOPA) with Benserazide 12 mg/kg for 17 days. Here is the method:
Male C57BL/6J mice, 15 weeks old, were used (see Chonpathompikunlert, P. (2018). BMC Complementary and Alternative Medicine, 18(103), 1 -12). […] The administration before treatment was to induce PD, and the administration after treatment was to visualize by a behavioral test. […] An abnormal involuntary movement scale test (AIMS test) was performed as a behavioral test according to the above schedule, and the severity of dyskinesia was scored (0: no AIM, 1: AIM in <50%, 2: AIM in >50%, 3: continuous but stopped by stimulation, 4: continuous). Mice with a strong symptom of dyskinesia have a large score.

Data set [8] has as its system MPTP mouse model of Parkinson's disease. The data set can be described thus: Grid walking test, intraperitoneal treatment. Type of data set: in vivo, C57BL/6J mice. Particulars: Day 11, after MPTP administered again; 15 mg/kg (in terms of L-DOPA) intraperitoneal for 11 days. Here is the method:
Male C57BL/6J mice, 15 weeks old, were used (see Chonpathompikunlert, P. (2018). BMC Complementary and Alternative Medicine, 18(103), 1 -12). […] The administration before treatment was to induce PD, and the administration after treatment was to visualize by a behavioral test. […] A grid walk test was performed as a behavioral test according to the above schedule, and the number of times the limbs of the mouse slipped into the opening was counted to test the balance ability.

On to PEG-b-P(L-DOPA(OAc)2), for which the “organ damage by H&E staining” value in data set [1] is listed as “does not damage each organ at all”.

Regarding `N[C@@H](Cc1ccc(O)c(O)c1)C(=O)O` [L-DOPA, 3,4-dihydroxy-L-phenylalanine], the “slider test, walking on a slope of 26.5 degrees” value in data set [2] is “sliding down due to involuntary movements of mice was observed only in the L-DOPA-administered group”. Moreover, in data set [3], the “body weight after MPTP-induced loss” value is “rapidly recovered” and the “health damage during the administration” value is recorded as “no noticeable health damage was observed”. In addition, the “foot slip errors in narrow beam walk test” value in data set [4] is “significantly suppressed”. The catalepsy test result in data set [5] was “no significant difference”. Further, the “time to pass through narrow bridge (narrow beam walk)” value in data set [6] was “improvement in therapeutic effect were continuously and significantly observed”. Besides, the “severity of dyskinesia (AIMS observation)” value in data set [7] is “involuntary movements of the oral cavity and twisting of the body axis characteristic of dyskinesia were observed only in the L-DOPA-administered group”. Moreover, in data set [8], the “number of slipping in grid walking test” value is recorded as “no difference was observed in the L-DOPA-administered group compared to the non-treatment group”.
